Here are results for three compounds from patent US8465769B2, “Pharmaceutical composition with controlled active ingredient release for active ingredients with good solubility in water” (Evonik Roehm GmbH, priority 2006, dated 2013).

The term solubility denotes how much of the substance goes into solution per volume.

The structures appear in SMILES notation. In brackets after ≈: the same amount, converted by molar mass. Where a name gives a salt, the structure may show the parent alone. Read-outs that look alike come from different tables or passages of the source.

The nature of the data set: Solubility of the active ingredients in water. As to conditions: thermodynamic from solid. The format is physicochemical. The protocol: The invention is suitable for active ingredients which have a solubility in water of at least 10 g/l, preferably at least 30 g/l, particularly preferably of at least 50 g/l, especially preferably of at least 100 g/l, 200 g/l, 300 g/l or 400 g/l at 20° C. (solubility in water based on standard methods such as, for example, Pharmeuropa—Technical Guide for the Elaboration of Monographs, 3rd Edition (1999), Chapter IV, Appendix IV (incorporated by reference) with vigorous shaking for 1 min, leaving to stand for 15 min at 20° C. in purified water). These ranges include all intermediate values and subranges.

As to `CC(C)(C)NCC(O)c1cc(O)cc(O)c1` (stereo not drawn) [Terbutaline sulphate], the solubility at 15 min (20 °C) was 500 mg/mL.

Under “20 °C”, `CNC[C@H](O)c1cccc(O)c1` [Phenylephrine hydrochloride] showed a solubility at 15 min of 500 mg/mL.

As for `Cn1c(=O)c2[nH]cnc2n(C)c1=O` [Theophylline], the solubility at 15 min (at 20° C., Pharmeuropa Technical Guide method, shaking for 15 min, read-out: solubility in water) amounted to 8.4 mg/mL (≈ 46.6 mM).
